ChEMBL document CHEMBL5257026, “Progress and prospects on DENV protease inhibitors” (Eur J Med Chem, 2016)
Blank lines part the entries; values can stand above or below the compound they belong to. Starred links: 1 amine or outer side, 2 acyl side, 3 side chain; linkers in the order of their positions; H or OH if unused. Non-standard residues stand in square brackets, D forms with d. Residues, ends and D or L forms follow the SMILES beside them. *: point of attachment. Arg(ψCOCO) = N=C(N)NCCC[C@H](N[*:1])C(=O)C(=O)[*:2]; PhAc = O=C(Cc1ccccc1)*

Columns and labels:
[1] = Inhibition of DENV2 recombinant CF40-glycine fused NS2B-NS3 protease expressed in Escherichia coli SG13009 using Ac-TTSTRR-pNA as substrate preincubated for 50 mins followed by substrate addition by spectrophotometric assay; set-up: species or system dengue virus type 2
[2] = Inhibition of DENV2 recombinant NS2B-NS3 protease expressed in Escherichia coli JM109 using acetyl-TTSTRR-para-nitroaniline as substrate preincubated for 10 mins followed by substrate addition measured after 120 mins by spectrophotometric analysis; set-up: species or system dengue virus type 2
[3] = Inhibition of DENV2 hydrophilic domain of NS2B (48 aminoacids)-NS3 (185 aminoacids) protease using Bz-Nle-Lys-Arg-Arg-AMC as substrate preincubated for 15 mins followed by substrate addition by spectrofluorometeric assay; set-up: species or system dengue virus type 2
[4] = Inhibition of DENV2 recombinant NS2B-(G4-S-G4)-NS3 protease using Bz-nKRR-AMC as substrate preincubated for 30 mins followed by substrate addition measured after 30 mins by fluorescence spectrophotometric analysis; set-up: species or system dengue virus type 2
[5] = Inhibition of DENV2 recombinant CF40gly(T)R fused NS2B-NS3 protease expressed in Escherichia coli XL1-Blue MRF using Boc-Gly-Arg-Arg-MCA as substrate incubated for 30 mins by fluorescence spectrophotometeric assay; set-up: species or system dengue virus type 2
[6] = Inhibition of DENV4 N-terminally hexa-His tagged NS2B (48 to 95 residues) -NS3 (1 to 184 residues) protease expressed in Escherichia coli XL1 Blue using QXL570-Phe-Ala-Ser-Gly-Lys-Arg-Ser-Gln-Ile-Gly-Leu-Lys(5-TAMRA)-NH2 as substrate and measured for 15 mins by FRET assay; set-up: species or system dengue virus type 4
[7] = Inhibition of DENV2 N-terminally hexa-His tagged NS2B (48 to 95 residues) -NS3 (1 to 184 residues) protease expressed in Escherichia coli XL1 Blue using QXL570-Phe-Ala-Ser-Gly-Lys-Arg-Ser-Gln-Ile-Gly-Leu-Lys(5-TAMRA)-NH2 as substrate and measured for 15 mins by FRET assay; set-up: species or system dengue virus type 2
[8] = Inhibition of DENV3 N-terminally hexa-His tagged NS2B (48 to 95 residues) -NS3 (1 to 184 residues) protease expressed in Escherichia coli XL1 Blue using QXL570-Phe-Ala-Ser-Gly-Lys-Arg-Ser-Gln-Ile-Gly-Leu-Lys(5-TAMRA)-NH2 as substrate and measured for 15 mins by FRET assay; set-up: species or system dengue virus type 3
[9] = Inhibition of DENV1 N-terminally hexa-His tagged NS2B (48 to 95 residues) -NS3 (1 to 184 residues) protease expressed in Escherichia coli XL1 Blue using QXL570-Phe-Ala-Ser-Gly-Lys-Arg-Ser-Gln-Ile-Gly-Leu-Lys(5-TAMRA)-NH2 as substrate and measured for 15 mins by FRET assay; set-up: species or system dengue virus type 1
[10] = Inhibition of DENV2 NS2B-NS3 protease using Boc-Gly-Lys-Arg-AMC as substrate incubated for 30 mins by fluorescence assay; set-up: species or system dengue virus type 2
[11] = Inhibition of DENV2 recombinant NS2B-NS3 protease expressed in Escherichia coli C41 using GRR-AMC as substrate incubated for 15 mins by Lineweaver-Burk plot analysis; set-up: species or system dengue virus type 2
[12] = Inhibition of DENV2 recombinant NS2B-NS3 protease expressed in Escherichia coli JM109 assessed as inhibition constant using acetyl-TTSTRR-para-nitroaniline as substrate preincubated for 10 mins followed by substrate addition measured after 120 mins by spectrophotometric analysis; set-up: species or system dengue virus type 2

SMILES: CC(=O)N[C@H](C(=O)N[C@H](C(=O)N[C@@H](CO)C(=O)N[C@H](C(=O)N[C@@H](CCCNC(=N)N)C(=O)N[C@@H](CCCNC(=N)N)C(=O)C(=O)N[C@@H](CO)C(=O)N[C@@H](CC(C)C)C(N)=O)[C@@H](C)O)[C@@H](C)O)[C@@H](C)O (Ac-TTSTR[Arg(ψCOCO)]SL-NH2)
Ki [1]: 220 µM

SMILES: CC(=O)N[C@@H](Cc1ccccc1)C(=O)N[C@@H](C)C(=O)N[C@@H](C)C(=O)NCC(=O)N[C@@H](CCCNC(=N)N)C(=O)N[C@H](C=O)CCCNC(=N)N (Ac-FAAGRR-aldehyde)
Ki [1]: 16 µM

SMILES: Cc1cc(C)c2c(c1)O[C@@H](c1ccc(N(C)C)cc1)CC2=O
Ki [5]: 121 µM

SMILES: O=c1cc(-c2ccccc2)oc2ccc(-c3nnn[nH]3)cc12
Ki [5]: 69 µM

SMILES: CC(=O)N[C@@H](CCCNC(=N)N)C(=O)N[C@H](C(=O)N[C@@H](CO)C(=O)N[C@@H](CCCCN)C(=O)N[C@@H](CCCCN)C(=O)N[C@@H](CCCNC(=N)N)C(N)=O)[C@@H](C)O (Ac-RTSKKR-NH2)
Ki [11]: 12.1 µM

SMILES: CC(=O)N[C@@H](CCCCN)C(=O)N[C@@H](CCCCN)C(=O)N[C@@H](CCCNC(=N)N)C(N)=O (Ac-Lys-Lys-Arg-NH2)
Ki [11]: 22.3 µM

SMILES: CC(=O)N[C@@H](CCCCN)C(=O)N[C@@H](CCCNC(=N)N)C(N)=O (Ac-Lys-Arg-NH2)
Ki [11]: 122 µM

SMILES: CC(=O)NCC(=O)N[C@@H](CCCCN)C(=O)N[C@@H](CCCNC(=N)N)C(N)=O (Ac-Gly-Lys-Arg-NH2)
Ki [11]: 152 µM

SMILES: O=C1C[C@@H](c2ccc3c(c2)OCCO3)Oc2ccccc21
Ki [5]: 186 µM

SMILES: O=C(Nc1nc2cc(O)c(O)cc2s1)c1ccccc1Sc1ccc(C(F)(F)F)cc1
IC50 [2]: 3.6 µM

Now from value to compound, other results behind:

IC50 [2]: 27 µM
SMILES: CCN1/C(=C/C=C/c2oc3ccc4ccccc4c3[n+]2CC)Oc2ccc3ccccc3c21

IC50 [3]: 3.67 µM
SMILES: Oc1c(C(Cc2nc3ccccc3s2)c2ccccc2OCc2ccccc2)ccc2ccccc12 (stereo not drawn)

IC50 [4]: 167 µM
SMILES: N=C(N)NCCC[C@@H](C=O)NC(=O)[C@H](CCCCN)NC(=O)[C@H](CCCCN)NC(=O)Cc1ccccc1 (PhAc-Lys-Lys-Arg-aldehyde)

IC50 [2]: 15.4 µM
SMILES: CCCCCCCCCC[N+](CC)(CC)CCOc1ccc2c(c1)C(=O)c1cc(OCC[N+](CC)(CC)CCCCCCCCCC)ccc1-2

IC50 [6]: 21 µM
IC50 [7]: 7 µM
IC50 [8]: 8.2 µM
IC50 [9]: 2.6 µM
SMILES: Cc1cc(NC(=O)O[C@@H]2C[C@H](Oc3ccc(NC(=N)N)cc3N=C(N)N)[C@@H](N=C(N)N)C[C@H]2N=C(N)N)ccc1F

IC50 [6]: 34 µM
IC50 [7]: 6 µM
IC50 [8]: 8.6 µM
IC50 [9]: 7.9 µM
SMILES: N=C(N)Nc1cc(NC(=N)N)c2ccccc2c1O[C@H]1C[C@@H](O)[C@H](NC(=N)N)C[C@@H]1NC(=N)N

Ki [10]: 35 µM
SMILES: Cc1cc(=O)cc2oc3cc(N)c(-c4c(C)cc(O)cc4O)c(C)c3nc1-2

IC50 [2]: 20.5 µM
SMILES: CCN1/C(=C/C=C/c2oc3ccc(-c4ccccc4)cc3[n+]2CC)Oc2ccc(-c3ccccc3)cc21

IC50 [6]: 11 µM
IC50 [7]: 5 µM
IC50 [8]: 5 µM
IC50 [9]: 3 µM
SMILES: N=C(N)Nc1ccc(O[C@H]2C[C@@H](Oc3ccc(NC(=N)N)cc3NC(=N)N)[C@H](NC(=N)N)C[C@@H]2NC(=N)N)c(NC(=N)N)c1
Ki [12]: 15.4 µM

IC50 [6]: 53 µM
IC50 [7]: 20.5 µM
IC50 [8]: 17.2 µM
IC50 [9]: 8.8 µM
SMILES: N=C(N)Nc1ccc(O[C@H]2C[C@H](F)[C@H](NC(=N)N)C[C@@H]2NC(=N)N)c(NC(=N)N)c1

IC50 [6]: 57 µM
IC50 [7]: 15 µM
IC50 [8]: 20 µM
IC50 [9]: 9.7 µM
SMILES: N=C(N)Nc1ccc(O[C@H]2C[C@@H](O)[C@H](NC(=N)N)C[C@@H]2NC(=N)N)c(NC(=N)N)c1

IC50 [3]: 0.91 µM
SMILES: Oc1c(C(Cc2nc3ccccc3s2)c2cccc(OCc3ccccc3)c2)ccc2ccccc12 (stereo not drawn)
